Measurements taken from patent EP2768830B1, “APOPTOSIS-INDUCING AGENTS FOR THE TREATMENT OF CANCER AND IMMUNE AND AUTOIMMUNE DISEASES” (AbbVie Inc., priority 2011, dated 2013).
Like-named read-outs stand apart in the source and are kept apart here.

What was measured:
GST-Bcl-xL = GST-Bcl-xL (Homo sapiens, UniProt Q07817); conditions: read-out: TR-FRET binding Bcl-xL Ki
[1] = system: mouse FL5.12 cells transfected with Bcl-XL; assay: FL5.12 cellular assay (cell viability, CellTiter-Glo); assay type: cell-based; conditions: Mus musculus;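 further: each EC50 determination derived from duplicate measurements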
[2] = FL5.12 cells transfected with Bcl-XL, IL-3-depleted, 3% FBS assay media, 24 hours, CellTiter-Glo, read-out: FL5.12 Bcl-xL, - IL3, EC 50

GST-Bcl-xL, sequence (Q07817 whole entry): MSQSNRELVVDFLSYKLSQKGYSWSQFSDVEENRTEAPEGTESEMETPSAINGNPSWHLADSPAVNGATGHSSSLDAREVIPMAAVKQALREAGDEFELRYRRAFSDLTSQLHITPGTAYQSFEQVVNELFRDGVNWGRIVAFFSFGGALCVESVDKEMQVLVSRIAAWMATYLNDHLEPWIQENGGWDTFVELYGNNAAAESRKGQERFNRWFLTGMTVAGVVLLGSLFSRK

| SMILES | Ki (GST-Bcl-xL) | EC50 [1, 2] | EC50 ([1]; FL5.12, 24 h, read-out: FL5.12 Bcl-xL, - IL3, EC 50 (nM)) |
| --- | --- | --- | --- |
| Cc1c(-c2ccc(N3CCc4cccc(C(=O)Nc5nc6ccccc6s5)c4C3)nc2C(=O)O)cnn1C(CCN1CCOCC1)C1CCCCC1 (centres unmarked) [Example 152, 6-[8-(1,3-benzothiazol-2-ylcarbamoyl)-3,4-dihydroisoquinolin-2(1H)-yl]-3-{1-[1-cyclohexyl-3-(morpholin-4-yl)propyl]-5-methyl-1H-pyrazol-4-yl}pyridine-2-carboxylic acid] | < 0.1 nM | 1 nM |  |
| O=C(Nc1nc2ccccc2s1)c1cccc2c1CN(c1ccc(-c3ccc4c(cnn4Cc4ccccc4)c3)c(C(=O)O)n1)CC2 [Example 153, 6-[8-(1,3-benzothiazol-2-ylcarbamoyl)-3,4-dihydroisoquinolin-2(1H)-yl]-3-(1-benzyl-1H-indazol-5-yl)pyridine-2-carboxylic acid] | 0.3 nM | 587 nM |  |
| Cc1c(-c2ccc(N3CCc4cccc(C(=O)Nc5nc6ccccc6s5)c4C3)nc2C(=O)O)cnn1CC1CCCCO1 (centres unmarked) [Example 154, 6-[8-(1,3-benzothiazol-2-ylcarbamoyl)-3,4-dihydroisoquinolin-2(1H)-yl]-3-[5-methyl-1-(tetrahydro-2H-pyran-2-ylmethyl)-1H-pyrazol-4-yl]pyridine-2-carboxylic acid] | < 0.1 nM | 15 nM |  |
| Cc1c(-c2ccc(N3CCc4cccc(C(=O)Nc5nc6ccccc6s5)c4C3)nc2C(=O)O)cnn1CC1(OCCCN2CCOCC2)CCCCCC1 [Example 155, 6-[8-(1,3-benzothiazol-2-ylcarbamoyl)-3,4-dihydroisoquinolin-2(1H)-yl]-3-[5-methyl-1-({1-[3-(morpholin-4-yl)propoxy]cycloheptyl}methyl)-1H-pyrazol-4-yl]pyridine-2-carboxylic acid] | < 0.1 nM | 7 nM |  |
| COC1(Cn2ncc(-c3ccc(N4CCc5cccc(C(=O)Nc6nc7ccccc7s6)c5C4)nc3C(=O)O)c2C)CCCC(C)(C)C1 (centres unmarked) [Example 157, 6-[8-(1,3-benzothiazol-2-ylcarbamoyl)-3,4-dihydroisoquinolin-2(1H)-yl]-3-{1-[(1-methoxy-3,3-dimethylcyclohexyl)methyl]-5-methyl-1H-pyrazol-4-yl}pyridine-2-carboxylic acid] | < 0.1 nM | 0.3 nM |  |
| Cc1c(-c2ccc(N3CCc4cccc(C(=O)Nc5nc6ccccc6s5)c4C3)nc2C(=O)O)cnn1CC1(N2CCOCC2)CCCCC1 [Example 160, 6-[8-(1,3-benzothiazol-2-ylcarbamoyl)-3,4-dihydroisoquinolin-2(1H)-yl]-3-(5-methyl-1-{[1-(morpholin-4-yl)cyclohexyl]methyl}-1H-pyrazol-4-yl)pyridine-2-carboxylic acid] | < 0.1 nM | 14 nM |  |
| COC1(Cn2ncc(-c3ccc(N4CCc5cccc(C(=O)Nc6nc7ccccc7s6)c5C4)nc3C(=O)NS(C)(=O)=O)c2C)CCCC(C)(C)C1 (centres unmarked) [Example 162, N-(1,3-benzothiazol-2-yl)-2-(5-{1-[(1-methoxy-3,3-dimethylcyclohexyl)methyl]-5-methyl-1H-pyrazol-4-yl}-6-[(methylsulfonyl)carbamoyl]pyridin-2-yl)-1,2,3,4-tetrahydroisoquinoline-8-carboxamide] | < 0.1 nM | 5 nM |  |
| Cc1c(-c2ccc(N3CCc4cccc(C(=O)Nc5nc6ccccc6s5)c4C3C)nc2C(=O)O)cnn1CC1(C)CCCCC1 (centres unmarked) [Example 163, 6-[8-(1,3-benzothiazol-2-ylcarbamoyl)-1-methyl-3,4-dihydroisoquinolin-2(1H)-yl]-3-{5-methyl-1-[(1-methylcyclohexyl)methyl]-1H-pyrazol-4-yl}pyridine-2-carboxylic acid] | 0.4 nM | 211 nM |  |
| COC1(Cn2ncc(-c3ccc(N4CCc5cccc(C(=O)Nc6nc7ccccc7s6)c5C4)nc3C(=O)O)c2C)CCCCC1 [Example 165, 6-[8-(1,3-benzothiazol-2-ylcarbamoyl)-3,4-dihydroisoquinolin-2(1H)-yl]-3-{1-[(1-methoxycyclohexyl)methyl]-5-methyl-1H-pyrazol-4-yl}pyridine-2-carboxylic acid] | < 0.1 nM | 9 nM |  |
| COC1(Cn2nnc(-c3ccc(N4CCc5cccc(C(=O)Nc6nc7ccccc7s6)c5C4)nc3C(=O)O)c2C)CCCC(C)(C)C1 (centres unmarked) [Example 166, 6-[8-(1,3-benzothiazol-2-ylcarbamoyl)-3,4-dihydroisoquinolin-2(1H)-yl]-3-{1-[(1-methoxy-3,3-dimethylcyclohexyl)methyl]-5-methyl-1H-1,2,3-triazol-4-yl}pyridine-2-carboxylic acid] | < 0.1 nM | 30 nM |  |
| Cc1c(-c2ccc(N3CCc4cccc(C(=O)Nc5nc6ccccc6s5)c4C3)nc2C(=O)O)cnn1CC1(OCCN2CCS(=O)(=O)CC2)CCCCC1 [Example 167, 6-[8-(1,3-benzothiazol-2-ylcarbamoyl)-3,4-dihydroisoquinolin-2(1H)-yl]-3-[1-({1-[2-(1,1-dioxidothiomorpholin-4-yl)ethoxy]cyclohexyl}methyl)-5-methyl-1H-pyrazol-4-yl]pyridine-2-carboxylic acid] | < 0.1 nM | 81 nM |  |
| Cc1c(-c2ccc(N3CCc4cccc(C(=O)Nc5nc6ccccc6s5)c4C3)nc2C(=O)O)cc(C#N)n1CC1(N2CCOCC2)CCCCC1 [Example 168, 6-[8-(1,3-benzothiazol-2-ylcarbamoyl)-3,4-dihydroisoquinolin-2(1H)-yl]-3-(5-cyano-2-methyl-1-{[1-(morpholin-4-yl)cyclohexyl]methyl}-1H-pyrrol-3-yl)pyridine-2-carboxylic acid] | < 0.1 nM | 14 nM |  |
| Cc1c(-c2ccc(N3CCc4cccc(C(=O)Nc5nc6ccccc6s5)c4C3)nc2C(=O)O)cnn1CC1(OCCO)CCCCC1 [Example 169, 6-[8-(1,3-benzothiazol-2-ylcarbamoyl)-3,4-dihydroisoquinolin-2(1H)-yl]-3-(1-{[1-(2-hydroxyethoxy)cyclohexyl]methyl}-5-methyl-1H-pyrazol-4-yl)pyridine-2-carboxylic acid] | < 0.1 nM | 10 nM |  |
| COCC(COC1(Cn2ncc(-c3ccc(N4CCc5cccc(C(=O)Nc6nc7ccccc7s6)c5C4)nc3C(=O)O)c2C)CCCCCC1)OC (centres unmarked) [Example 170, 6-[8-(1,3-benzothiazol-2-ylcarbamoyl)-3,4-dihydroisoquinolin-2(1H)-yl]-3-(1-{[1-(2,3-dimethoxypropoxy)cycloheptyl]methyl}-5-methyl-1H-pyrazol-4-yl)pyridine-2-carboxylic acid] | < 0.1 nM | 0.5 nM |  |
| COCCOC1(Cn2c(C#N)cc(-c3ccc(N4CCc5cccc(C(=O)Nc6nc7ccccc7s6)c5C4)nc3C(=O)O)c2C)CCCCCC1 [Example 172, 6-[8-(1,3-benzothiazol-2-ylcarbamoyl)-3,4-dihydroisoquinolin-2(1H)-yl]-3-(5-cyano-1-{[1-(2-methoxyethoxy)cycloheptyl]methyl}-2-methyl-1H-pyrrol-3-yl)pyridine-2-carboxylic acid] | < 0.1 nM | 1 nM |  |
| Cc1c(-c2ccc(N3CCc4cccc(C(=O)Nc5nc6ccccc6s5)c4C3)nc2C(=O)O)cnn1CC1(OCC2COCCO2)CCCCCC1 (centres unmarked) [Example 173, 6-[8-(1,3-benzothiazol-2-ylcarbamoyl)-3,4-dihydroisoquinolin-2(1H)-yl]-3-(1-{[1-(1,4-dioxan-2-ylmethoxy)cycloheptyl]methyl}-5-methyl-1H-pyrazol-4-yl)pyridine-2-carboxylic acid] | < 0.1 nM | 0.1 nM |  |
| Cc1c(-c2ccc(N3CCc4cccc(C(=O)Nc5nc6ccccc6s5)c4C3)nc2C(=O)O)cnn1CC1(OCC(=O)N2CCOCC2)CCCCC1 [Example 174, 6-[8-(1,3-benzothiazol-2-ylcarbamoyl)-3,4-dihydroisoquinolin-2(1H)-yl]-3-[5-methyl-1-({1-[2-(morpholin-4-yl)-2-oxoethoxy]cyclohexyl}methyl)-1H-pyrazol-4-yl]pyridine-2-carboxylic acid] | < 0.1 nM | 210 nM |  |
| Cc1c(-c2ccc(N3CCc4cccc(C(=O)Nc5nc6ccccc6s5)c4C3)nc2C(=O)O)cnn1CC1(OCC(O)CO)CCCCCC1 (centres unmarked) [Example 175, 6-[8-(1,3-benzothiazol-2-ylcarbamoyl)-3,4-dihydroisoquinolin-2(1H)-yl]-3-(1-{[1-(2,3-dihydroxypropoxy)cycloheptyl]methyl}-5-methyl-1H-pyrazol-4-yl)pyridine-2-carboxylic acid] | < 0.1 nM | 33 nM |  |
| Cc1c(-c2ccc(N3CCc4cccc(C(=O)Nc5nc6ccccc6s5)c4C3)nc2C(=O)O)cc(C#N)n1CC1(N(C)C)CCCCC1 [Example 176, 6-[8-(1,3-benzothiazol-2-ylcarbamoyl)-3,4-dihydroisoquinolin-2(1H)-yl]-3-(5-cyano-1-{[1-(dimethylamino)cyclohexyl]methyl}-2-methyl-1H-pyrrol-3-yl)pyridine-2-carboxylic acid] | < 0.1 nM | 10 nM |  |
| Cc1c(-c2ccc(N3CCc4cccc(C(=O)Nc5nc6ccccc6s5)c4C3)nc2C(=O)O)cccc1N(C)C(=O)C1CCCCC1 [Example 177, 6-[8-(1,3-benzothiazol-2-ylcarbamoyl)-3,4-dihydroisoquinolin-2(1H)-yl]-3-{3-[(cyclohexylcarbonyl)(methyl)amino]-2-methylphenyl}pyridine-2-carboxylic acid] | < 0.1 nM | 24 nM |  |
| Cc1c(-c2ccc(N3CCc4cccc(C(=O)Nc5nc6ccccc6s5)c4C3)nc2C(=O)O)cnn1CC1(OCCS(C)(=O)=O)CCCC(C)(C)C1 (centres unmarked) [Example 178, 6-[8-(1,3-benzothiazol-2-ylcarbamoyl)-3,4-dihydroisoquinolin-2(1H)-yl]-3-[1-({3,3-dimethyl-1-[2-(methylsulfonyl)ethoxy]cyclohexyl}methyl)-5-methyl-1H-pyrazol-4-yl]pyridine-2-carboxylic acid] | < 0.1 nM | 0.2 nM |  |
| Cc1c(-c2ccc(N3CCc4cccc(C(=O)Nc5nc6ccccc6s5)c4C3)nc2C(=O)O)cccc1N(C)C(=O)C1(C)CCCCC1 [Example 179, 6-[8-(1,3-benzothiazol-2-ylcarbamoyl)-3,4-dihydroisoquinolin-2(1H)-yl]-3-(2-methyl-3-{methyl[(1-methylcyclohexyl)carbonyl]amino}phenyl)pyridine-2-carboxylic acid] | < 0.1 nM |  | 6 nM |
